This is an account of results in patent US5912264A, “6-halo-or nitrate-substituted paclitaxels” (Bristol-Myers Squibb Company, priority 1998, dated 1999).

Read-outs that look alike come from different tables or passages of the source.

The test system of assay [1] is M109 lung carcinoma. In words: Mice M109 Model (In-Vivo), median survival time % T/C. Also noted: species or system mice (Balb/c x DBA/2 F1 hybrid). As to conditions: Mus musculus, ip, days 1, 5 and 9 or days 5 and 8 post-implant, median survival T/C x 100. The method, then: Balb/c x DBA/2 F1 hybrid mice were implanted intraperitoneally, as described by William Rose in Evaluation of Madison 109 Lung Carcinoma as a Modelfor Screening Antitumor Drugs, Cancer Treatment Reports, 65, No. 3-4 (1981), with 0.5 mL of a 2% (w/v) brei of M109 lung carcinoma.
Mice were treated with compounds under study by receiving intraperitoneal injections of various doses on either days 1, 5 and 9 post-tumor implant or days 5 and 8 post-implant. Mice were followed daily for survival until approximately 75-90 days post-tumor implant. One group of mice per experiment remained untreated and served as the control group.
Median survival times of compound-treated (T) mice were compared to the median survival time of the control (C) mice. The ratio of the two values for each compound-treated group of mice was multiplied by 100 and expressed as a percentage (i.e. % T/C) in the following Table II for representative compounds.

The subject of assay [2] is HCT-116 human colon carcinoma cells. In words: Cytotoxicity (in vitro) in HCT-116 human colon carcinoma cells, MTS assay. Type of assay: cell-based. As to conditions: read-out: IC50 (nM) HCT 116. The method, then: Cytoxicity was assessed in HCT-116 human colon carcinoma cells by MTS (3-(4,5-dimethylthiazol-2-yl)-5-(3-carboxymethoxyphenyl)-2-(4-sulphenyl)-2H-tetrazolium, inner salt) assay as reported in T. L. Riss, et. al., "Comparison of MTT, XTT, and a novel tetrazolium compound MTS for in vitro proliferation and chemosensitivity assays.," Mol. Biol. Cell 3 (Suppl.):184a, 1992. Cells were plated at 4,000 cell/well in 96 well microtiter plates and 24 hours later drugs were added and serial diluted. The cells were incubated at 37° form 72 hours at which time the tetrazolium dye, MTS at 333 μg/ml (final concentration), in combination with the electron coupling agent phenazine methosulfate at 25 μM (final concentration) was added. A dehydrogenase enzyme in live cells reduces the MTS to a form that absorbs light at […] which can be quantitated spectrophotometrically. The greater the absorbance the greater the number of live cells. The results are expressed as an IC50, which is the drug concentration required to inhibit cell proliferation (i.e. absorbance at 450 nm) to 50% of that of untreated control cells. The IC50 values for compounds evaluated in this assay are evaluated in Table I.
For orientation: Tetrazolium dyes change colour on reduction, which living cells bring about.

The conditions of assay [3]: in vivo animal models; cited from earlier work.
The mark [4] stands for this setting: HCT-116, 72 hours, MTS, inhibition of cell proliferation to 50% of untreated control.

Turning to `CC(=O)O[C@H]1C(=O)[C@@]2(C)[C@H]([C@H](OC(=O)c3ccccc3)[C@]3(O)C[C@H](OC(=O)[C@H](O)[C@@H](NC(=O)c4ccccc4)c4ccccc4)C(C)=C1C3(C)C)[C@]1(OC(C)=O)CO[C@@H]1[C@@H](O[N+](=O)[O-])[C@@H]2O` [If, paclitaxel-6α-nitrate], the response vs control in vivo at 100 mg/kg in assay [1] turned out to be 132%. Moreover, the IC50 in assay [2] (HCT-116, 72 h) is 1.5 nM.
For the compound `CSCO[C@H]1[C@H](O[N+](=O)[O-])[C@H]2OC[C@@]2(OC(C)=O)[C@H]2[C@H](OC(=O)c3ccccc3)[C@]3(O)C[C@H](OC(=O)[C@H](O)[C@@H](NC(=O)c4ccccc4)c4ccccc4)C(C)=C([C@@H](OC(C)=O)C(=O)[C@@]21C)C3(C)C` [Ih, 7-O-Methylthiomethylpaclitaxel-6α-nitrate], in assay [1], the response vs control in vivo at 195 mg/kg amounted to 132%. Further, the IC50 in assay [2] (HCT-116, 72 h) amounted to 7.35 nM.
`CC(=O)O[C@H]1C(=O)[C@@]2(C)[C@H]([C@H](OC(=O)c3ccccc3)[C@]3(O)C[C@H](OC(=O)[C@H](O)[C@@H](NC(=O)c4ccccc4)c4ccccc4)C(C)=C1C3(C)C)[C@]1(OC(C)=O)CO[C@@H]1[C@@H](Br)[C@@H]2O` [Ie, 6α-Bromopaclitaxel] returned a response vs control in vivo at 200 mg/kg in assay [1] (dose 200 mg/kg) of 214%. Also, the IC50 in assay [2] (setting [4]) was determined as 2.6 nM.
For the compound `CSCO[C@H]1[C@H](F)[C@H]2OC[C@@]2(OC(C)=O)[C@H]2[C@H](OC(=O)c3ccccc3)[C@]3(O)C[C@H](OC(=O)[C@H](O)[C@@H](NC(=O)OC(C)(C)C)c4ccccc4)C(C)=C([C@@H](OC(C)=O)C(=O)[C@@]21C)C3(C)C` [Im, 3'N-desbenzoyl-3'N-t-Butoxycarbonyl-7-O-methylthiomethyl-6α-Fluoropaclitaxel], in assay [2] (setting [4]), the IC50 is 1 nM.
With `CC(=O)O[C@H]1C(=O)[C@@]2(C)[C@H]([C@H](OC(=O)c3ccccc3)[C@]3(O)C[C@H](OC(=O)[C@H](O)[C@@H](NC(=O)c4ccccc4)c4ccccc4)C(C)=C1C3(C)C)[C@]1(OC(C)=O)CO[C@@H]1C[C@@H]2O` [paclitaxel], the concentration for half-maximal inhibition (IC50) in assay [2] (HCT-116, 72 h) fell in the range of 1.53 to 2.73 nM. The antitumor activity result in assay [3] was “excellent antitumor activity in in vivo animal models”.
As to `CC(=O)O[C@H]1C(=O)[C@]2(C)C[C@@H](I)[C@H]3OC[C@@]3(OC(C)=O)[C@H]2[C@H](OC(=O)c2ccccc2)[C@]2(O)C[C@H](OC(=O)[C@H](O)[C@@H](NC(=O)c3ccccc3)c3ccccc3)C(C)=C1C2(C)C` [Iq, 7-Deoxy-6-β-Iodopaclitaxel], the response vs control in vivo at 50 mg/kg in assay [1] worked out at 129%. For the same compound, the IC50 in assay [2] (HCT-116, 72 h) turned out to be 2.24 nM.
`CO[C@H]1[C@H](F)[C@H]2OC[C@@]2(OC(C)=O)[C@H]2[C@H](OC(=O)c3ccccc3)[C@]3(O)C[C@H](OC(=O)[C@H](O)[C@@H](NC(=O)OC(C)(C)C)c4ccccc4)C(C)=C([C@@H](OC(C)=O)C(=O)[C@@]21C)C3(C)C` [In, 3'N-desbenzoyl-3'N-t-Butoxycarbonyl-7-O-methyl-6α-Fluoropaclitaxel] displayed a response vs control in vivo at 25 mg/kg in assay [1] of 144%.
`CC(=O)O[C@H]1C(=O)[C@@]2(C)[C@H]([C@H](OC(=O)c3ccccc3)[C@]3(O)C[C@H](OC(=O)[C@H](O)[C@@H](NC(=O)c4ccccc4)c4ccccc4)C(C)=C1C3(C)C)[C@]1(OC(C)=O)CO[C@@H]1[C@@H](Cl)[C@@H]2O` [Ij, 6-α-Chloropaclitaxel]: the response vs control in vivo at 100 mg/kg in assay [1] came to 203%. For the same compound, the half-inhibitory concentration (IC50) in assay [2] (setting [4]) was found to be 1.2 nM.
On to `CSCO[C@H]1[C@H](F)[C@H]2OC[C@@]2(OC(C)=O)[C@H]2[C@H](OC(=O)c3ccccc3)[C@]3(O)C[C@H](OC(=O)[C@H](O)[C@@H](NC(=O)c4ccccc4)c4ccccc4)C(C)=C([C@@H](OC(C)=O)C(=O)[C@@]21C)C3(C)C` [Ic, 7-O-Meththiomethyl-6α-Fluoropaclitaxel], for which, in assay [1], the response vs control in vivo at 100 mg/kg is 147%. Besides, the IC50 in assay [2] (HCT-116, 72 h) is 3.3 nM.
For `COCO[C@H]1[C@H](F)[C@H]2OC[C@@]2(OC(C)=O)[C@H]2[C@H](OC(=O)c3ccccc3)[C@]3(O)C[C@H](OC(=O)[C@H](O)[C@@H](NC(=O)OC(C)(C)C)c4ccccc4)C(C)=C([C@@H](OC(C)=O)C(=O)[C@@]21C)C3(C)C` [Il, 3'N-desbenzoyl-3'N-t-Butoxycarbonyl-7-O-methoxymethyl-6a-Fluoropaclitaxel], the response vs control in vivo at 50 mg/kg in assay [1] came to 187%. Also, the IC50 in assay [2] (HCT-116, 72 h) was 2.5 nM.
`COCO[C@H]1[C@H](O[N+](=O)[O-])[C@H]2OC[C@@]2(OC(C)=O)[C@H]2[C@H](OC(=O)c3ccccc3)[C@]3(O)C[C@H](OC(=O)[C@H](O)[C@@H](NC(=O)c4ccccc4)c4ccccc4)C(C)=C([C@@H](OC(C)=O)C(=O)[C@@]21C)C3(C)C` [Ii, 7-O-Methoxymethylpaclitaxel-6α-nitrate] came in with a response vs control in vivo at 195 mg/kg in assay [1] of 141%. Also, the IC50 in assay [2] (HCT-116, 72 h) turned out to be 4.95 nM.
In assay [1], `CO[C@H]1[C@H](F)[C@H]2OC[C@@]2(OC(C)=O)[C@H]2[C@H](OC(=O)c3ccccc3)[C@]3(O)C[C@H](OC(=O)[C@H](O)[C@@H](NC(=O)c4ccccc4)c4ccccc4)C(C)=C([C@@H](OC(C)=O)C(=O)[C@@]21C)C3(C)C` [Id, 7-O-Methyl-6α-Fluoropaclitaxel] showed a response vs control in vivo at 100 mg/kg of 147%. Moreover, the IC50 in assay [2] (HCT-116, 72 h) came to 0.83 nM.
On to `CC(=O)O[C@H]1C(=O)[C@@]2(C)[C@H]([C@H](OC(=O)c3ccccc3)[C@]3(O)C[C@H](OC(=O)[C@H](O)[C@@H](NC(=O)c4ccccc4)c4ccccc4)C(C)=C1C3(C)C)[C@]1(OC(C)=O)CO[C@@H]1[C@@H](F)[C@@H]2O` [Ia, 6α-Fluoropaclitaxel], for which the IC50 in assay [2] (HCT-116, 72 h) amounted to 1.4 nM.
Consider `CC(=O)O[C@H]1C(=O)[C@]2(C)C[C@@H](Cl)[C@H]3OC[C@@]3(OC(C)=O)[C@H]2[C@H](OC(=O)c2ccccc2)[C@]2(O)C[C@H](OC(=O)[C@H](O)[C@@H](NC(=O)c3ccccc3)c3ccccc3)C(C)=C1C2(C)C` [Io, 7-Deoxy-6-β-Chloropaclitaxel], for which the response vs control in vivo at 25 mg/kg in assay [1] amounted to 166%. Besides, in assay [2] (setting [4]), the IC50 is 0.62 nM.
On to `CC(=O)O[C@H]1C(=O)[C@]2(C)C[C@@H](Br)[C@H]3OC[C@@]3(OC(C)=O)[C@H]2[C@H](OC(=O)c2ccccc2)[C@]2(O)C[C@H](OC(=O)[C@H](O)[C@@H](NC(=O)c3ccccc3)c3ccccc3)C(C)=C1C2(C)C` [Ip, 7-Deoxy-6-β-Bromopaclitaxel], for which the response vs control in vivo at 50 mg/kg in assay [1] turned out to be 172%. Moreover, the IC50 in assay [2] (HCT-116, 72 h) amounted to 0.72 nM.
For `COCO[C@H]1[C@H](F)[C@H]2OC[C@@]2(OC(C)=O)[C@H]2[C@H](OC(=O)c3ccccc3)[C@]3(O)C[C@H](OC(=O)[C@H](O)[C@@H](NC(=O)c4ccccc4)c4ccccc4)C(C)=C([C@@H](OC(C)=O)C(=O)[C@@]21C)C3(C)C` [Ib, 7-O-Methoxymethyl-6α-Fluoropaclitaxel], the response vs control in vivo at 100 mg/kg in assay [1] amounted to 162%. Further, in assay [2] (HCT-116, 72 h), the IC50 is 1.3 nM.
As for `CC(=O)O[C@H]1C(=O)[C@@]2(C)[C@H]([C@H](OC(=O)c3ccccc3)[C@]3(O)C[C@H](OC(=O)[C@H](O)[C@@H](NC(=O)OC(C)(C)C)c4ccccc4)C(C)=C1C3(C)C)[C@]1(OC(C)=O)CO[C@@H]1[C@@H](F)[C@@H]2O` [Ik, 3'N-desbenzoyl-3'N-t-Butoxycarbonyl-6α-Fluoropaclitaxel], the response vs control in vivo at 100 mg/kg in assay [1] was determined as 269%. In addition, the IC50 in assay [2] (HCT-116, 72 h) amounted to 0.2 nM.

As a reminder, the IC50 is the midpoint of a concentration-inhibition curve.
